{
  "source": "paper PMC7346717",
  "about": "(Nature structural & molecular biology, 2018)",
  "key": {"[1]": {"biological_target": "T1, ΔN-drSLC38A9 (ΔN-SLC38A9) (Danio rerio, UniProt Q08BA4, N227Q/N235Q/N252Q/N263Q)", "T1 sequence (Q08BA4 71-549 N227Q/N235Q/N252Q/N263Q)": "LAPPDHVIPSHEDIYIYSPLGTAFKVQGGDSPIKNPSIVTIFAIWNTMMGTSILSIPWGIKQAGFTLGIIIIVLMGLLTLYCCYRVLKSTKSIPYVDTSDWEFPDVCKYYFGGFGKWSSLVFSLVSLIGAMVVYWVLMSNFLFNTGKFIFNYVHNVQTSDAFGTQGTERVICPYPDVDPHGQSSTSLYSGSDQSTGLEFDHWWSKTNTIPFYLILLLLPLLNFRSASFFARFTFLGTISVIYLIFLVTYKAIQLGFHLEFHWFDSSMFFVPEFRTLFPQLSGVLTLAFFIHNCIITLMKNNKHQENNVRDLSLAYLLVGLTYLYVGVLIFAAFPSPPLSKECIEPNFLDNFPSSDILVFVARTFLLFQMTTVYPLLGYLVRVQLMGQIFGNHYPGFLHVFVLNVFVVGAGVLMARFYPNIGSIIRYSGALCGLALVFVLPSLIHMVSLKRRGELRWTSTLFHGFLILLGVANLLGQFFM", "assay": "proteoliposome radioligand uptake", "type": "biochemical", "conditions": "0.5 μM [3H]L-arginine, labelled compound; NaCl, MES pH 5.0"}, "[2]": {"biological_target": "T2, drSLC38A9 (full-length, wild-type) (Danio rerio, UniProt Q08BA4)", "T2 sequence (Q08BA4 1-549)": "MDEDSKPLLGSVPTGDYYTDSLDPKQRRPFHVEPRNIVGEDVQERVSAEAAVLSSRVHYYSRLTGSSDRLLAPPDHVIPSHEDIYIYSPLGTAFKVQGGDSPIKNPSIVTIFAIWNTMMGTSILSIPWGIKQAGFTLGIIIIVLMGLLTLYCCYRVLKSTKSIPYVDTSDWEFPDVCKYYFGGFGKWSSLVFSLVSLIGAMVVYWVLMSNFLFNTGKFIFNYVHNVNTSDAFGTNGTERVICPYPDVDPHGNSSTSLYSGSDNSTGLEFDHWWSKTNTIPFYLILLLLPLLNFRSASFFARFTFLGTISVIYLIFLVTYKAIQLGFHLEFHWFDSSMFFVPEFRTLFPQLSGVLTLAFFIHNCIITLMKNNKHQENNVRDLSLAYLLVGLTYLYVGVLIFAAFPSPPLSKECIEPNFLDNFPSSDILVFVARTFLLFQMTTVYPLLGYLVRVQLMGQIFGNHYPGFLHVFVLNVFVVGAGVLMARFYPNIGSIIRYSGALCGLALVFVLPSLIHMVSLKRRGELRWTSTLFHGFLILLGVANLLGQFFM", "assay": "proteoliposome radioligand uptake", "type": "biochemical", "conditions": "0.5 μM [3H]L-arginine, labelled compound; Na+ (not K+ or NMG), pH 5.0"}},
  "data": [
    {"smiles": "N=C(N)NCCC[C@H](N)C(=O)O", "note": "[arginine]", "values": [
      {"measurement": "proteoliposome radioligand uptake", "setting": "[1]", "value": "the truncated drSLC38A9 protein is active and able to bind arginine similarly to the wild-type"},
      {"measurement": "proteoliposome radioligand uptake", "setting": "[2]", "value": "robust uptake was observed in the presence of sodium"}
    ]}
  ]
}
